{"source": "patent US9458137B2", "about": "“Substituted indol-5-ol derivatives and their therapeutical applications” (NantBioScience, Inc., priority 2012, dated 2016)", "assay_in_all_cases": "Kinase panel activity", "format_in_all_cases": "biochemical", "conditions_in_all_cases": "0.1 μM, ATP Km", "key": {"Rsk4(h)": {"target": "T1, Rsk4(h) (Homo sapiens, UniProt Q9UK32)", "T1 construct": "purchased Millipore (KinaseProfiler service)", "protocol": "(§1) The effect of NTW-3475 on kinase activity was tested for a wide range of kinases and is shown in Table 2: Summary Sheet, Activity % ATP Concentration: Km"}, "MKK4(m)": {"target": "T2, MKK4(m) (Mus musculus, UniProt P47809)", "T2 construct": "purchased Millipore (KinaseProfiler service)", "protocol": "as §1"}, "Rsk1(r)": {"target": "T3, Rsk1(r) (Rattus norvegicus, UniProt Q63531)", "T3 construct": "purchased Millipore (KinaseProfiler service)", "protocol": "as §1"}, "cKit(V560G)(h)": {"target": "cKit(V560G)(h) (Homo sapiens, UniProt P10721, V560G)", "protocol": "as §1"}, "Txk(h)": {"target": "Txk(h) (Homo sapiens, UniProt P42681)", "protocol": "as §1"}, "Mer(h)": {"target": "T4, Mer(h) (Homo sapiens, UniProt Q12866)", "T4 construct": "purchased Millipore (KinaseProfiler service)", "protocol": "as §1"}, "F1t1(h)": {"target": "F1t1(h) (Homo sapiens, UniProt P17948)", "sequence (P17948 27-1338)": "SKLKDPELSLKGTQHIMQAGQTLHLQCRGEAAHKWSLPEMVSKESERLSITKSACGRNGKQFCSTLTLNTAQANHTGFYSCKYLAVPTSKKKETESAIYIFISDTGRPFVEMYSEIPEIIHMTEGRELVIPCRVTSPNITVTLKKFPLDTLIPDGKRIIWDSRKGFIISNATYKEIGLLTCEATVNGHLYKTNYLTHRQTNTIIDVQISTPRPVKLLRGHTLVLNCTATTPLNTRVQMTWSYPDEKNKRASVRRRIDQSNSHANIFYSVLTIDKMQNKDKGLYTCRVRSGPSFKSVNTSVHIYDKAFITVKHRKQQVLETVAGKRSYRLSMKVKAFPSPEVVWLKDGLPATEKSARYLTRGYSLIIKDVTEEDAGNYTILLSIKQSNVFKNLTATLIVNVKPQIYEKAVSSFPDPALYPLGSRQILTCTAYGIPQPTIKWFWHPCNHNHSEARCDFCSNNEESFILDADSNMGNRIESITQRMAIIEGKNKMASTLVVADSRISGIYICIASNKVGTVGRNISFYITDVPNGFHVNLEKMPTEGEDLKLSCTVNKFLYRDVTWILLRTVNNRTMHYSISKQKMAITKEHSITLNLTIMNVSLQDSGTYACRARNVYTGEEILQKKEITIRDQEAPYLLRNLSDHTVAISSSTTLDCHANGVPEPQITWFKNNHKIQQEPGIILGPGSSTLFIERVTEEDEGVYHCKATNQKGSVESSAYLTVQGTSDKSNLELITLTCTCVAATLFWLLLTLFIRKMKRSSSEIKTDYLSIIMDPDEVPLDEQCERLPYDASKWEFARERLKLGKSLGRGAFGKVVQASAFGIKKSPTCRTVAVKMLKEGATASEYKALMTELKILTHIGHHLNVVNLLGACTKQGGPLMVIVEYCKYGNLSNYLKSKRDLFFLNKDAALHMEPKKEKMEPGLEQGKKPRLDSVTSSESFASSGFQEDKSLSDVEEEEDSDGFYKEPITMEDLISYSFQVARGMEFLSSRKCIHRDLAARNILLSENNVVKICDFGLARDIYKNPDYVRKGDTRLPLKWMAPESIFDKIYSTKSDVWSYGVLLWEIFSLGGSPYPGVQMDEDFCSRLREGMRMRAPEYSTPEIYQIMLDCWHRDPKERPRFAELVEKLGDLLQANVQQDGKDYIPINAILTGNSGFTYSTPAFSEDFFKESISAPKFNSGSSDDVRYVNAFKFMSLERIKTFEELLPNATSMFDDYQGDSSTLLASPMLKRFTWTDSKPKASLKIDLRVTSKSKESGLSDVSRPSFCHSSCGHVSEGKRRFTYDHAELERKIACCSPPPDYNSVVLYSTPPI", "protocol": "as §1"}, "p70S6K(h)": {"target": "p70S6K(h) (Homo sapiens, UniProt P23443)", "protocol": "as §1"}, "mTOR/FKBP12(h)": {"target": "mTOR/FKBP12(h) (Homo sapiens, UniProt P42345)", "sequence (P42345 1362-2549 limits assumed)": "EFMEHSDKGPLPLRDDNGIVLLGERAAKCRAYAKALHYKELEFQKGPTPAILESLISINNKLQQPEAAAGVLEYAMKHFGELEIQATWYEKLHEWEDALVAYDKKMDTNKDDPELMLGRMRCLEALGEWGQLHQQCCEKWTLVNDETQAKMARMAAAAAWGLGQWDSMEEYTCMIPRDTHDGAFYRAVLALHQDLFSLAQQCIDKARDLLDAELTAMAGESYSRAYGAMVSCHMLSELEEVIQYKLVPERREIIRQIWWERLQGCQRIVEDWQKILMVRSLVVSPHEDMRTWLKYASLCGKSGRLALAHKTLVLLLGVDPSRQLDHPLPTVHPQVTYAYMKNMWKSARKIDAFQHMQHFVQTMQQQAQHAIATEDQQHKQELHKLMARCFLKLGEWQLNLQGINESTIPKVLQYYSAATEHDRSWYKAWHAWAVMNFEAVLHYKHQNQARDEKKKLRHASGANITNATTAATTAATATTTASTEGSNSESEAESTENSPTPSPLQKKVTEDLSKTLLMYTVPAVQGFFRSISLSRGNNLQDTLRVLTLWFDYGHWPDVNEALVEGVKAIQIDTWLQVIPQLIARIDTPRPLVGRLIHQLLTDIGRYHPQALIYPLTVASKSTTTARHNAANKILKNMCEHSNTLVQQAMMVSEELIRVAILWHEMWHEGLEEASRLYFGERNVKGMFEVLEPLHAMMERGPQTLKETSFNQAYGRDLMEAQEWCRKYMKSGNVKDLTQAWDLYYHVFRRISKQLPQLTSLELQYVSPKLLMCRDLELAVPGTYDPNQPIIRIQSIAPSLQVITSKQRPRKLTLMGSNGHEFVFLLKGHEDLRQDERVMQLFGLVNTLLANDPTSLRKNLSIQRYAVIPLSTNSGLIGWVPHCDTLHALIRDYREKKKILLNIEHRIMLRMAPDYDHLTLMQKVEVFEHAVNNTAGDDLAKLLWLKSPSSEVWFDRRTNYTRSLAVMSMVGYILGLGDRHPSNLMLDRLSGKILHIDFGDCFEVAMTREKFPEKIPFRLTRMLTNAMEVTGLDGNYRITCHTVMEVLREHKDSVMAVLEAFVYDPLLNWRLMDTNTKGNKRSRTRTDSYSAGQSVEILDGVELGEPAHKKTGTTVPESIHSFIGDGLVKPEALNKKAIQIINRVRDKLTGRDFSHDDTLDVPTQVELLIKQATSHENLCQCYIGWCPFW", "protocol": "as §1"}, "Fyn(h)": {"target": "Fyn(h) (Homo sapiens, UniProt P06241)", "sequence (P06241 whole entry)": "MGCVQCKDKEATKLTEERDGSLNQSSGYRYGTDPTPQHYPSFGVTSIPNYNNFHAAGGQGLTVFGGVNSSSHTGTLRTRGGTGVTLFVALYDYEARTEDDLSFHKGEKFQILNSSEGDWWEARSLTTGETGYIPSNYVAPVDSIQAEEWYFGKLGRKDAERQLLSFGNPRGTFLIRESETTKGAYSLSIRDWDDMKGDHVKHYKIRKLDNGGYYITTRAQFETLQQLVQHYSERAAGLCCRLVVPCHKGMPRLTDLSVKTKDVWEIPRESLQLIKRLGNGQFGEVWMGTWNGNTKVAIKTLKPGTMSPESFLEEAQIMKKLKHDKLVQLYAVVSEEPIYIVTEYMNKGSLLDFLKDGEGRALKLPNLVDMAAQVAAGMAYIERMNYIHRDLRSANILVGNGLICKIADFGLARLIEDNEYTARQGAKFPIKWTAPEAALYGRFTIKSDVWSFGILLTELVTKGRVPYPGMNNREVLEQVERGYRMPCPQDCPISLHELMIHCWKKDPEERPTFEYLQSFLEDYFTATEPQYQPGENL", "protocol": "as §1"}, "Pyk2(h)": {"target": "T5, Pyk2(h) (Homo sapiens, UniProt Q14289)", "T5 construct": "purchased Millipore (KinaseProfiler service)", "protocol": "as §1"}, "FGFR2(h)": {"target": "FGFR2(h) (Homo sapiens, UniProt P21802)", "sequence (P21802 22-821)": "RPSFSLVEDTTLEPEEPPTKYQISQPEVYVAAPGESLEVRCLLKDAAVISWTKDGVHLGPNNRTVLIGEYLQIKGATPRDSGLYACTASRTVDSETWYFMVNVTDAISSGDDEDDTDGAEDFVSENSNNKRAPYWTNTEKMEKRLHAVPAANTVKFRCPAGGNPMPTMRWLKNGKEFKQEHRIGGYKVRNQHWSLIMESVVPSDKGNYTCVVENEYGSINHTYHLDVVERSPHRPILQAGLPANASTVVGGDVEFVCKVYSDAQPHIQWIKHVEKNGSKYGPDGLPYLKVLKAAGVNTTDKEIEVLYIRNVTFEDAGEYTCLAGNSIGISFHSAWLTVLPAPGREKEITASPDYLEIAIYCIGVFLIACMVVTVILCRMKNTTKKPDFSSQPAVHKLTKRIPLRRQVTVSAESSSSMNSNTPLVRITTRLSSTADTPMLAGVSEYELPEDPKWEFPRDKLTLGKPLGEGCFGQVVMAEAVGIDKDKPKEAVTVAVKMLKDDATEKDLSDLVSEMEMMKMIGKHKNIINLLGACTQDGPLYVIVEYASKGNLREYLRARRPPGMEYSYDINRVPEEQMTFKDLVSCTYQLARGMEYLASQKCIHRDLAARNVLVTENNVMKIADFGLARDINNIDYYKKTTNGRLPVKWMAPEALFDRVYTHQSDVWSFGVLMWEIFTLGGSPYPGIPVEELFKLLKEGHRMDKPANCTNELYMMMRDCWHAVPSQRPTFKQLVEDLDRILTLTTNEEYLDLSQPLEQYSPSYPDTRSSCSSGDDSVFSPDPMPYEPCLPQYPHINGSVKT", "protocol": "as §1"}, "CaMKI(h)": {"target": "CaMKI(h) (Homo sapiens, UniProt Q14012)", "protocol": "as §1"}, "PKGIβ(h)": {"target": "PKGIβ(h) (Homo sapiens, UniProt Q13976)", "protocol": "as §1"}, "EGFR(L858R)(h)": {"target": "T6, EGFR(L858R)(h) (Homo sapiens, UniProt P00533, L858R)", "T6 construct": "purchased Millipore (KinaseProfiler service)", "protocol": "as §1"}, "PDGFRα(D842V)(h)": {"target": "PDGFRα(D842V)(h) (Homo sapiens, UniProt P16234, D842V)", "protocol": "as §1"}, "IR(h), activated": {"target": "IR(h), activated (Homo sapiens, UniProt P06213)", "protocol": "as §1"}, "Ab1(Y253F)(h)": {"target": "Ab1(Y253F)(h) (Homo sapiens, UniProt P00519, Y253F)", "protocol": "as §1"}, "FAK(h)": {"target": "T7, FAK(h) (Homo sapiens, UniProt Q05397)", "T7 construct": "purchased Millipore (KinaseProfiler service)", "protocol": "as §1"}, "SIK(h)": {"target": "T8, SIK(h) (Homo sapiens, UniProt P57059)", "T8 construct": "purchased Millipore (KinaseProfiler service)", "protocol": "as §1"}, "PKBβ(h)": {"target": "PKBβ(h) (Homo sapiens, UniProt P31751)", "protocol": "as §1"}, "Fes(h)": {"target": "T9, Fes(h) (Homo sapiens, UniProt P07332)", "T9 construct": "purchased Millipore (KinaseProfiler service)", "protocol": "as §1"}, "ULK2(h)": {"target": "ULK2(h) (Homo sapiens, UniProt Q8IYT8)", "protocol": "as §1"}, "JNK2α2(h)": {"target": "JNK2α2(h) (Homo sapiens, UniProt P45984)", "protocol": "as §1"}, "Arg(h)": {"target": "Arg(h) (Homo sapiens, UniProt P42684)", "protocol": "as §1"}, "IKKα(h)": {"target": "IKKα(h) (Homo sapiens, UniProt O15111)", "protocol": "as §1"}, "SAPK4(h)": {"target": "T10, SAPK4(h) (Homo sapiens, UniProt O15264)", "T10 construct": "purchased Millipore (KinaseProfiler service)", "protocol": "as §1"}, "Met(D1246H)(h)": {"target": "T11, Met(D1246H)(h) (Homo sapiens, UniProt P08581, D1228H)", "T11 construct": "purchased Millipore (KinaseProfiler service)", "protocol": "as §1"}, "ASK1(h)": {"target": "ASK1(h) (Homo sapiens, UniProt Q99683)", "protocol": "as §1"}, "SAPK2a(h)": {"target": "T12, SAPK2a(h) (Homo sapiens, UniProt Q16539)", "T12 construct": "purchased Millipore (KinaseProfiler service)", "protocol": "as §1"}, "EGFR(T790M)(h)": {"target": "T13, EGFR(T790M)(h) (Homo sapiens, UniProt P00533, T790M)", "T13 construct": "purchased Millipore (KinaseProfiler service)", "protocol": "as §1"}, "JAK3(h)": {"target": "JAK3(h) (Homo sapiens, UniProt P52333)", "protocol": "as §1"}, "FGFR1(h)": {"target": "T14, FGFR1(h) (Homo sapiens, UniProt P11362)", "T14 construct": "purchased Millipore (KinaseProfiler service)", "protocol": "as §1"}, "CDK5/p25(h)": {"target": "CDK5/p25(h) (Homo sapiens, UniProt Q00535)", "protocol": "as §1"}, "Tie2(R849W)(h)": {"target": "T15, Tie2(R849W)(h) (Homo sapiens, UniProt Q02763, R849W)", "T15 construct": "purchased Millipore (KinaseProfiler service)", "T15 sequence (Q02763 23-1124 R849W)": "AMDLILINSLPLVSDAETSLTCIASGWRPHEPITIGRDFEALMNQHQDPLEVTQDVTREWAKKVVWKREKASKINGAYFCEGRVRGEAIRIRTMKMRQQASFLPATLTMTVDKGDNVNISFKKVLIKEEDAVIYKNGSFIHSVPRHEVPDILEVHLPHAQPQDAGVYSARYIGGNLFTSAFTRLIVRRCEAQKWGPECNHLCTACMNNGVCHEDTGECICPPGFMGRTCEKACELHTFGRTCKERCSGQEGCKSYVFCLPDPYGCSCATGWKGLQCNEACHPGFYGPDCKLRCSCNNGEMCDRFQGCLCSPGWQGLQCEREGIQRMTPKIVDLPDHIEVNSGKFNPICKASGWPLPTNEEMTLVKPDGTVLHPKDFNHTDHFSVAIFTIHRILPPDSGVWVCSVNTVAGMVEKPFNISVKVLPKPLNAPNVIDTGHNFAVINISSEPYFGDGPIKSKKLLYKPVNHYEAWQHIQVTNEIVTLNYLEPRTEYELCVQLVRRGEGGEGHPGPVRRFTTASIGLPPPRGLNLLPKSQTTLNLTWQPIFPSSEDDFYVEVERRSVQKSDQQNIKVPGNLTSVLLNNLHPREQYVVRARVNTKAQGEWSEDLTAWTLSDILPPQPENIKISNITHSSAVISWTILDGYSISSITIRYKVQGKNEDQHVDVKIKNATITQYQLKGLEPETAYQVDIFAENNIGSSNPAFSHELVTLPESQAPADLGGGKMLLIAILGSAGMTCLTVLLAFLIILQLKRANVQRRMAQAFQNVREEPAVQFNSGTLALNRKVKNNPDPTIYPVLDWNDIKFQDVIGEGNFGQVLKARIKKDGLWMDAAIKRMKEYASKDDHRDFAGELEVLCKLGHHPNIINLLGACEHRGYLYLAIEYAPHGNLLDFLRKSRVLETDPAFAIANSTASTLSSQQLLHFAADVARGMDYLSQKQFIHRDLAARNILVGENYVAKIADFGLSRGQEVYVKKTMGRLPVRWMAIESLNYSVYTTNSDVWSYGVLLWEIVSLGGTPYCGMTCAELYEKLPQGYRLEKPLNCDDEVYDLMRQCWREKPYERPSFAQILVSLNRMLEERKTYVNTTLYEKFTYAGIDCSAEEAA", "protocol": "as §1"}, "MuSK(h)": {"target": "MuSK(h) (Homo sapiens, UniProt O15146)", "protocol": "as §1"}, "CaMKIIδ(h)": {"target": "CaMKIIδ(h) (Homo sapiens, UniProt Q13557)", "protocol": "as §1"}, "PDGFRα(h)": {"target": "PDGFRα(h) (Homo sapiens, UniProt P16234)", "protocol": "as §1"}, "DDR2(h)": {"target": "DDR2(h) (Homo sapiens, UniProt Q16832)", "protocol": "as §1"}}, "data": [{"smiles": "Cc1cc2c(F)c(Oc3nc(Nc4cc(C5CC5)[nH]n4)cc(N4CCN(C)CC4)n3)cc(F)c2[nH]1", "note": "[NTW-3475]", "values": [{"measurement": "Activity %", "setting": "Rsk4(h)", "value": 66, "unit": "%"}, {"measurement": "Activity %", "setting": "MKK4(m)", "value": 100, "unit": "%"}, {"measurement": "Activity %", "setting": "Rsk1(r)", "value": 69, "unit": "%"}, {"measurement": "Activity %", "setting": "cKit(V560G)(h)", "value": 3, "unit": "%"}, {"measurement": "Activity %", "setting": "Txk(h)", "value": 20, "unit": "%"}, {"measurement": "Activity %", "setting": "Mer(h)", "value": 2, "unit": "%"}, {"measurement": "Activity %", "setting": "F1t1(h)", "value": 11, "unit": "%"}, {"measurement": "Activity %", "setting": "p70S6K(h)", "value": 84, "unit": "%"}, {"measurement": "Activity %", "setting": "mTOR/FKBP12(h)", "value": 63, "unit": "%"}, {"measurement": "Activity %", "setting": "Fyn(h)", "value": 1, "unit": "%"}, {"measurement": "Activity %", "setting": "Pyk2(h)", "value": 59, "unit": "%"}, {"measurement": "Activity %", "setting": "FGFR2(h)", "value": 0, "unit": "%"}, {"measurement": "Activity %", "setting": "CaMKI(h)", "value": 90, "unit": "%"}, {"measurement": "Activity %", "setting": "PKGIβ(h)", "value": 111, "unit": "%"}, {"measurement": "Activity %", "setting": "EGFR(L858R)(h)", "value": 72, "unit": "%"}, {"measurement": "Activity %", "setting": "PDGFRα(D842V)(h)", "value": 17, "unit": "%"}, {"measurement": "Activity %", "setting": "IR(h), activated", "value": 13, "unit": "%"}, {"measurement": "Activity %", "setting": "Ab1(Y253F)(h)", "value": "−2", "unit": "%"}, {"measurement": "Activity %", "setting": "FAK(h)", "value": 78, "unit": "%"}, {"measurement": "Activity %", "setting": "SIK(h)", "value": 33, "unit": "%"}, {"measurement": "Activity %", "setting": "PKBβ(h)", "value": 97, "unit": "%"}, {"measurement": "Activity %", "setting": "Fes(h)", "value": 32, "unit": "%"}, {"measurement": "Activity %", "setting": "ULK2(h)", "value": 46, "unit": "%"}, {"measurement": "Activity %", "setting": "JNK2α2(h)", "value": 107, "unit": "%"}, {"measurement": "Activity %", "setting": "Arg(h)", "value": "−3", "unit": "%"}, {"measurement": "Activity %", "setting": "IKKα(h)", "value": 102, "unit": "%"}, {"measurement": "Activity %", "setting": "SAPK4(h)", "value": 91, "unit": "%"}, {"measurement": "Activity %", "setting": "Met(D1246H)(h)", "value": 18, "unit": "%"}, {"measurement": "Activity %", "setting": "ASK1(h)", "value": 112, "unit": "%"}, {"measurement": "Activity %", "setting": "SAPK2a(h)", "value": 79, "unit": "%"}, {"measurement": "Activity %", "setting": "EGFR(T790M)(h)", "value": 61, "unit": "%"}, {"measurement": "Activity %", "setting": "JAK3(h)", "value": 3, "unit": "%"}, {"measurement": "Activity %", "setting": "FGFR1(h)", "value": "−1", "unit": "%"}, {"measurement": "Activity %", "setting": "CDK5/p25(h)", "value": 60, "unit": "%"}, {"measurement": "Activity %", "setting": "Tie2(R849W)(h)", "value": 6, "unit": "%"}, {"measurement": "Activity %", "setting": "MuSK(h)", "value": 48, "unit": "%"}, {"measurement": "Activity %", "setting": "CaMKIIδ(h)", "value": 98, "unit": "%"}, {"measurement": "Activity %", "setting": "PDGFRα(h)", "value": 67, "unit": "%"}, {"measurement": "Activity %", "setting": "DDR2(h)", "value": 9, "unit": "%"}]}]}
